Measured values published in US4307097A, “Method of reducing increased intracranial pressure” (Tanabe Seiyaku Co., Ltd., priority 1979, dated 1981).

What was measured:
intracranial pressure [1] = experiment: Effect of i.v. injection of test compounds on intracranial pressure in rats; format: in vivo, rat (male SD-strain); conditions: rat, 0 minute = 100
Text: Male SD-strain rats weighing 500 to 800 g (each group consisting of 5 rats) were anesthetized with urethane. […] Intracranial pressure (i.e., cerebrospinal fluid pressure in the cisterna magna) was continuously monitored via a cannula inserted in the cisterna magna. The cannula was connected to a transducer, and recordings were made on graph paper.

[2] = test system: increased intracranial pressure; experiment: Effect of i.v. injection on increased intracranial pressure (autologous blood injected into the brain) in rats; format: in vivo, rat (male SD-strain); conditions: rat, 0 minute = 100
Description: Male SD-strain rats weighing 500 to 800 g (each group consisting of 5 rats) were anesthetized with urethane. 0.03 ml of autologous blood were injected into the brain of the rats to induce an increase in intracranial pressure. The level of increased intracranial pressure in the rats was about twice as high as its initial level 120 to 180 minutes after injection of autologous blood and said increased intracranial pressure was maintained at an approximately same level thereafter. 180 minutes after injection of autologous blood, a solution of a test compound in an aqueous 5 w/v % mannitol solution was infused via the femoral vein of the rats at a rate of 0.2 ml/kg/minute for 40 minutes. Then, the effect of the test compound on the intracranial pressure was calculated according to the following formula: [formula]
Compound No. 4 listed in Example 1 was used in this experiment.

intracranial pressure [3] = experiment: Effect of i.v. injection of test compounds on intracranial pressure in beagle dogs; format: in vivo, beagle dog (male); conditions: beagle dog, 1.0 mg/kg, 0 minute = 100
Description: A solution of a test compound in an aqueous 5 w/v % mannitol solution was infused via the saphenous vein of the beagle dogs at a rate of 0.1 ml/kg/minute for 40 minutes.

[4] = test system: increased intracranial pressure; experiment: Effect of i.v. injection on increased intracranial pressure (autologous blood injected into the lateral ventricle) in rabbits; format: in vivo, rabbit (male); conditions: rabbit, 0 minute = 100
Description: Male rabbits weighing 2.8 to 3.2 kg (each group consisting of 6 rabbits) were anethetized with urethane. 0.1 to 0.2 ml of autologous blood were injected into the lateral ventricle of the rabbits to induce a rise in intracranial pressure. The level of intracranial pressure was about 2.3 times as high as its initial level 150 to 180 minutes after injection of autologous blood. 180 minutes after injection of autologous blood, a solution of a test compound in an aqueous 10 w/v % maltose solution was administered intravenously to the rabbits at a rate of 0.1 ml/kg/minute for 20 minutes. Then, the effect of the test compound on the intracranial pressure was calculated in the same manner as described in Example 2. [The initial intracranial pressure (i.e., the normal intracranial pressure measured before injection of autologous blood) was 75±2.6 mm H2 O, and the intracranial pressure measured before administration of test compound was 176±16 mm H2 O.]
Compound 4 listed in Example 1 was used in this experiment.

[5] = test system: common carotid blood flow; experiment: Effect of test compounds on common carotid blood flow in cats; format: in vivo; conditions: cat, right thyroid artery, 30 seconds after administration, baseline 24.1 ± 0.9 ml/minute
Description: A solution of a test compound in an aqueous 10 w/v % maltose solution was injected into the right thyroid artery of the cats. The common carotid artery blood flow was continuously monitored via the flow probe set at the common carotid artery. The flow probe was connected to an electromagnetic flow meter, and recordings were made on graph paper. The effect of the test compound on the common carotid blood flow was estimated 30 seconds after administration of the test compound.

Acute toxicity = conditions: in vivo, mouse, observed for a week
Description: The 50% lethal dose (LD50) of the test compound was calculated according to the Weil's method from the number of mice died a week after the administration.

intracranial pressure [6] = experiment: Effect of p.o. administration of test compounds on intracranial pressure in rats; format: in vivo, rat (male SD-strain); conditions: rat, 8 mg/kg, 240 minutes, 0 minute = 100
Description: Male SD-strain rats weighing 500 to 800 g (each group consisting of 5 rats) were fasted for about 20 hours, and anesthetized with urethane. A suspension of a test compound in aqueous 0.5 w/v % carboxymethyl-cellulosewas administered orally to the rats. Then, the effect of the compound on the intracranial pressure was estimated in the same manner as described in Example 1.
Compound 4 (free base) listed in Example 1 was used in this experiment.

[7] = Therapeutic index (ratio of LD50 to minimum effective dose); format: in vivo; conditions: orally or intravenously
Text: Unlike the hypertonic solutions of glycerol or mannitol, the therapeutic effect of the propanol derivative (I) of the present invention is not ascribable to the cerebral dehydrating effect and, therefore, said derivative (I) can be used either orally or parenterally. The propanol derivative (I) may also be used for the treatment of prophylaxis of increased intracranial pressure during and after brain surgical operation. Moreover, the propanol derivative (I) may be used for improving impaired consciousness, nervous disturbance and subjective symptoms (e.g., headache, nausea, vomiting) which are attributed to the cerebral diseases such as those mentioned hereinbefore. Further, whereas it is known that cerebral edema induces a rise in intracranial pressure and increased intracranial pressure serves to cause a build-up of edema which in turn impairs cerebral circulation, the propanol derivative (I) can interrupt this vicious cycle of cerebral diseases because of its potent intracranial pressure-lowering effect and its ability to ameliorate the cerebral circulatory impairment. The toxicity of the propanol derivative (I) of the present invention is low.

COc1cc(NC(C)=O)ccc1OCC(O)CN1CCN(c2cccc(F)c2)CC1.Cl (centres unmarked) [Compound 4, 1-(4-acetamido-2-methoxyphenoxy)-3-[4-(3-fluorophenyl)piperazino]-2-propanol hydrochloride]
Changes in intracranial pressure (intracranial pressure [1]; 0.5 mg/kg, 40 minutes): 84.3%
Changes in intracranial pressure (intracranial pressure [1]; 0.5 mg/kg, 60 minutes): 80.5%
Changes in intracranial pressure (intracranial pressure [1]; 0.5 mg/kg, 120 minutes): 86.5%
Changes in intracranial pressure (intracranial pressure [1]; 0.5 mg/kg, 180 minutes): 86.7%
Changes in intracranial pressure (intracranial pressure [1]; 1.0 mg/kg, 40 minutes): 82.6%
Changes in intracranial pressure (intracranial pressure [1]; 1.0 mg/kg, 60 minutes): 78.1%
Changes in intracranial pressure (intracranial pressure [1]; 1.0 mg/kg, 120 minutes): 82.2%
Changes in intracranial pressure (intracranial pressure [1]; 1.0 mg/kg, 180 minutes): 85.2%
Changes in intracranial pressure (intracranial pressure [1]; 2.0 mg/kg, 40 minutes): 81.5%
Changes in intracranial pressure (intracranial pressure [1]; 2.0 mg/kg, 60 minutes): 72.5%
Changes in intracranial pressure (intracranial pressure [1]; 2.0 mg/kg, 120 minutes): 74.6%
Changes in intracranial pressure (intracranial pressure [1]; 2.0 mg/kg, 180 minutes): 78.9%
Changes in intracranial pressure ([2]; 0.5 mg/kg, 40 minutes): 68.0%
Changes in intracranial pressure ([2]; 0.5 mg/kg, 60 minutes): 65.4%
Changes in intracranial pressure ([2]; 0.5 mg/kg, 120 minutes): 74.6%
Changes in intracranial pressure ([2]; 0.5 mg/kg, 180 minutes): 76.0%
Changes in intracranial pressure ([2]; 1.0 mg/kg, 40 minutes): 56.7%
Changes in intracranial pressure ([2]; 1.0 mg/kg, 60 minutes): 60.9%
Changes in intracranial pressure ([2]; 1.0 mg/kg, 120 minutes): 59.2%
Changes in intracranial pressure ([2]; 1.0 mg/kg, 180 minutes): 60.6%
Changes in intracranial pressure (intracranial pressure [3]; 40 minutes): 80.3%
Changes in intracranial pressure (intracranial pressure [3]; 60 minutes): 75.6%
Changes in intracranial pressure (intracranial pressure [3]; 120 minutes): 82.5%
Changes in intracranial pressure (intracranial pressure [3]; 180 minutes): 83.1%
Changes in intracranial pressure ([4]; 1 mg/kg, 20 minutes): 96.4%
Changes in intracranial pressure ([4]; 1 mg/kg, 60 minutes): 91.7%
Changes in intracranial pressure ([4]; 1 mg/kg, 120 minutes): 82.1%
Changes in intracranial pressure ([4]; 1 mg/kg, 180 minutes): 94.0%
Changes in intracranial pressure ([4]; 1 mg/kg, 240 minutes): 91.7%
Changes in intracranial pressure ([4]; 1 mg/kg, 300 minutes): 91.7%
Changes in intracranial pressure ([4]; 2 mg/kg, 20 minutes): 89.5%
Changes in intracranial pressure ([4]; 2 mg/kg, 60 minutes): 77.1%
Changes in intracranial pressure ([4]; 2 mg/kg, 120 minutes): 68.6%
Changes in intracranial pressure ([4]; 2 mg/kg, 180 minutes): 63.8%
Changes in intracranial pressure ([4]; 2 mg/kg, 240 minutes): 65.7%
Changes in intracranial pressure ([4]; 2 mg/kg, 300 minutes): 63.8%
Increase in common carotid blood flow ([5]; 1 μg/kg): 3.5 ± 0.8 Δml/minute
Increase in common carotid blood flow ([5]; 5 μg/kg): 6.1 ± 0.6 Δml/minute
Increase in common carotid blood flow ([5]; 10 μg/kg): 8.8 ± 1.3 Δml/minute
LD50 at 168 h (Acute toxicity; iv): 280 mg/kg

COc1cc(NC(C)=O)ccc1OCC(O)CN1CCN(c2ccccc2C)CC1 (centres unmarked) [Compound 2, 1-(4-acetamido-2-methoxyphenoxy)-3-[4-(2-methylphenyl)piperazino]-2-propanol]
Changes in intracranial pressure (intracranial pressure [1]; 1.0 mg/kg, 40 minutes): 90.5%
Changes in intracranial pressure (intracranial pressure [1]; 1.0 mg/kg, 60 minutes): 90.7%
Changes in intracranial pressure (intracranial pressure [1]; 1.0 mg/kg, 120 minutes): 90.1%
Changes in intracranial pressure (intracranial pressure [1]; 1.0 mg/kg, 180 minutes): 91.5%

COc1cc(NC(C)=O)ccc1OCC(O)CN1CCN(c2ccccc2F)CC1 (centres unmarked) [Compound 5, 1-(4-acetamido-2-methoxyphenoxy)-3-[4-(2-fluorophenyl)piperazino]-2-propanol]
Changes in intracranial pressure (intracranial pressure [1]; 1.0 mg/kg, 40 minutes): 84.0%
Changes in intracranial pressure (intracranial pressure [1]; 1.0 mg/kg, 60 minutes): 84.0%
Changes in intracranial pressure (intracranial pressure [1]; 1.0 mg/kg, 120 minutes): 81.3%
Changes in intracranial pressure (intracranial pressure [1]; 1.0 mg/kg, 180 minutes): 87.5%

COc1cc(NC(C)=O)ccc1OCC(O)CN1CCN(c2ccccc2Cl)CC1 (centres unmarked) [Compound 3, 1-(4-acetamido-2-methoxyphenoxy)-3-[4-(2-chlorophenyl)piperazino]-2-propanol]
Changes in intracranial pressure (intracranial pressure [1]; 1.0 mg/kg, 40 minutes): 92.4%
Changes in intracranial pressure (intracranial pressure [1]; 1.0 mg/kg, 60 minutes): 87.5%
Changes in intracranial pressure (intracranial pressure [1]; 1.0 mg/kg, 120 minutes): 85.3%
Changes in intracranial pressure (intracranial pressure [1]; 1.0 mg/kg, 180 minutes): 85.0%

COc1cc(NC(C)=O)ccc1OCC(O)CN1CCN(c2cccc(F)c2)CC1 (centres unmarked) [Compound 4 (free base), 1-(4-acetamido-2-methoxyphenoxy)-3-[4-(3-fluorophenyl)piperazino]-2-propanol]
Changes in intracranial pressure (intracranial pressure [6]): 75.6%
LD50 at 168 h (Acute toxicity; po): 1550 mg/kg
therapeutic index (50% lethal dose / minimum effective dose) [7]: not less than 400

COc1cc(NC(C)=O)ccc1OCC(O)CN1CCN(c2ccccc2)CC1 (centres unmarked) [Compound 1, 1-(4-acetamido-2-methoxyphenoxy)-3-(4-phenylpiperazino)-2-propanol]
Changes in intracranial pressure (intracranial pressure [1]; 1.0 mg/kg, 40 minutes): 81.4%
Changes in intracranial pressure (intracranial pressure [1]; 1.0 mg/kg, 60 minutes): 85.5%
Changes in intracranial pressure (intracranial pressure [1]; 1.0 mg/kg, 120 minutes): 91.7%
Changes in intracranial pressure (intracranial pressure [1]; 1.0 mg/kg, 180 minutes): 92.8%

COc1cc(NC(C)=O)ccc1OCC(O)CN1CCN(c2cccc(C(F)(F)F)c2)CC1 (centres unmarked) [Compound 6, 1-(4-acetamido-2-methoxyphenoxy)-3-[4-(3-trifluoromethylphenyl)piperazino]-2-propanol]
Changes in intracranial pressure (intracranial pressure [1]; 1.0 mg/kg, 40 minutes): 97.0%
Changes in intracranial pressure (intracranial pressure [1]; 1.0 mg/kg, 60 minutes): 95.0%
Changes in intracranial pressure (intracranial pressure [1]; 1.0 mg/kg, 120 minutes): 90.5%
Changes in intracranial pressure (intracranial pressure [1]; 1.0 mg/kg, 180 minutes): 92.8%

COc1ccc(Cc2nccc3cc(OC)c(OC)cc23)cc1OC [Papaverine, reference compound]
Increase in common carotid blood flow ([5]; 10 μg/kg): 2.6 ± 0.2 Δml/minute
Increase in common carotid blood flow ([5]; 25 μg/kg): 5.4 ± 0.6 Δml/minute
